In patent publication US11203592B2, “Inhibitors of indoleamine 2,3-dioxygenase and methods of their use” (BRISTOL-MYERS SQUIBB COMPANY, priority 2017, dated 2021):
pIC50: −log10 of the molar value.

Tests used:
[1] = molecular target: T1, indoleamine 2,3-dioxygenase (IDO) (Homo sapiens, UniProt P14902); experiment: HeLa cell-based indoleamine 2,3-dioxygenase (IDO) assay, kynurenine production; details: HeLa cells, IFNγ 25 ng/mL, 48 hour incubation, kynurenine absorbance at 480 nm
T1 construct: endogenous in cells; host or cells: HeLa (ATCC CCL-2), induced with IFNγ at 25 ng/mL
Procedure: Assessment of Inhibitor Activity in HeLa Cell-Based Indoleamine 2,3-dioxygenase (IDO) Assay:
HeLa (ATCC® CCL-2) cells were obtained from the ATCC® and cultured in Dulbecco's Modified Eagle Medium supplemented with 4.5 g/L glucose, […] (#10-013-CV, Corning), 2 mM L-alanyl-L-glutamine dipeptide (#35050-061, Gibco), 100U/mL penicillin, 100 μg/mL streptomycin (#SV30010, HyClone) and 10% fetal bovine serum (#SH30071.03 HyClone). Cells were maintained in a humidified incubator at 37° C. in 5% CO2.
IDO activity was assessed as a function of kynurenine production as follows: HeLa cells were seeded in a 96-well culture plate at a density of 5,000 cells/well and allowed to equilibrate overnight. After 24 hours, the media was aspirated and replaced with media containing IFNγ (#285-IF/CF, R&D Systems) at a final concentration of 25 ng/mL. A serial dilution of each test compound was added to the cells in a total volume of 200 μL of culture medium. After a further 48 hour incubation, 170 μL of supernatant was transferred from each well to a fresh 96-well plate. 12.1 μL of 6.1N trichloroacetic acid (#T0699, Sigma-Aldrich) was added to each well and mixed, followed by incubation at 65° C. for 20 minutes to hydrolyze N-formylkynurenine, the product of indoleamine 2,3-dioxygenase, to kynurenine. The reaction mixture was then centrifuged for 10 mins at 500×g to sediment the precipitate. 100 μL of the supernatant was transferred from each well to a fresh 96-well plate. 100 μl of 2% (w/v) p-dimethylaminobenzaldehyde (#15647-7, Sigma-Aldrich) in acetic acid (#A6283, Sigma-Aldrich) was added to each well mixed and incubated at room temperature for 20 inns. Kynurenine concentrations were determined by measuring absorbance at 480 nm and calibrating against an L-kynurenine (#K8625, Sigma-Aldrich) standard curve using a SPECTRAMAX® M2e microplate reader (Molecular Devices). The percentage activity at each inhibitor concentration was determined and IC50 values assessed using nonlinear regression.

human IDO1 = molecular target: T2, human IDO1 (Homo sapiens, UniProt P14902); experiment: human IDO1/HEK293 cell IDO inhibition assay; type: cell-based; details: HEK293 cells stably expressing human IDO1, 20 hours incubation, absorbance at 490 nm; read-out: IDO1 HEK Human IC50
T2 construct: expressed in transfected cells
Procedure: HEK293 cells were transfected with a pCDNA-based mammalian expression vector harboring human IDO1 cDNA (NM 002164.2) by electroporation. They were cultured in medium (DMEM with 10% FBS) containing 1 mg/ml G418 for two weeks. Clones of HEK293 cells that stably expressed human IDO1 protein were selected and expanded for IDO inhibition assay.
The human IDO1/HEK293 cells were seeded at 10,000 cells per 50 μL per well with RPMI/phenol red free media contains 10% FBS in a 384-well black wall clear bottom tissue culture plate (Matrix Technologies LLC) 100 nL of certain concentration of compound was then added to each well using ECHO liquid handling systems. The cells were incubated for 20 hours in 37° C. incubator with 5% CO2.
The compound treatments were stopped by adding trichloroacetic acid (Sigma-Aldrich) to a final concentration at 0.2%. The cell plate was further incubated at 50° C. for 30 minute. The equal volume supernatant (20 μL) and 0.2% (w/v) Ehrlich reagent (4-dimethylaminobenzaldehyde, Sigma-Aldrich) in glacial acetic acid were mixed in a new clear bottom 384-well plate. This plate was then incubated at room temperature for 30 minute. The absorbance at 490 nm was measured on Envision plate reader.
Compound IC50 values were calculated using the counts of 500 nM of a reference standard treatment as one hundred percent inhibition, and counts of no compound but DMSO treatment as zero percent inhibition.

T1 sequence (P14902 whole entry): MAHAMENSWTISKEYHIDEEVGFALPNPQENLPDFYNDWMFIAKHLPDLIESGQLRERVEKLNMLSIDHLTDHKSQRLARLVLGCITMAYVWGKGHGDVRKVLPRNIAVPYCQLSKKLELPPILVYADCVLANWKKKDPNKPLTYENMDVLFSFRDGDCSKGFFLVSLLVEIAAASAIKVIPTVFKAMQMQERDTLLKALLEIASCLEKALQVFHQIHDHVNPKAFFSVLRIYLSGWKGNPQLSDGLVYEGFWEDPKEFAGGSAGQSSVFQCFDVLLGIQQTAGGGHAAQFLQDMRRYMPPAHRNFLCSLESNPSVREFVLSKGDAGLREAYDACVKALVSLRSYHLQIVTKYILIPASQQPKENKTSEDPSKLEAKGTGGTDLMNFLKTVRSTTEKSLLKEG
T2 sequence (P14902 whole entry): as above

| Structure (SMILES) | pIC50 [1] | pIC50 (human IDO1) |
| --- | --- | --- |
| CC(C(=O)NC12CC3CC(CC(C3)C1)C2)[C@H]1CC[C@@]2(CC1)OCc1ccccc12 (mixture of isomers) [Example 28, rac-N—((1R,3S)-Adamantan-1-yl)-2-((1R,4r)-3′H-spiro[cyclohexane-1,1′-isobenzofuran]-4-yl)propanamide] | 6.70 | – |
| O=C(C[C@H]1CC[C@@]2(CC1)OCc1ccccc12)Nc1ccc(Cl)cc1 [Example 1, N-(4-Chlorophenyl)-2-((1r,4r)-3′H-spiro[cyclohexane-1,1′-isobenzofuran]-4-yl)acetamide] | 6.94 | 7.00 |
| O=C(C[C@H]1CC[C@@]2(CC1)OCc1ccccc12)NC12CC3CC(CC(C3)C1)C2 [Example 2, N-((1R,3S)-Adamantan-1-yl)-2-((1R,4r)-3′H-spiro[cyclohexane-1,1′-isobenzofuran]-4-yl)acetamide] | 6.72 | – |
| O=C(C[C@H]1CC[C@]2(CC1)OCc1ccccc12)Nc1ccc(Cl)cc1 [Example 3, N-(4-Chlorophenyl)-2-((1s,4s)-3′H-spiro[cyclohexane-1,1′-isobenzofuran]-4-yl)acetamide] | 6.66 | 6.29 |
| C[C@H](C(=O)Nc1ccc(Cl)cc1)[C@H]1CC[C@@]2(CC1)COc1ccccc12 [Example 15, (S)—N-(4-Chlorophenyl)-2-((1'S,4′r)-2H-spiro[benzofuran-3,1′-cyclohexan]-4′-yl)propanamide] | 7.70 | 7.77 |
